Key:
false cleavers [1] = test: Test Example 4: herbicidal effect by soil treatment (Table 19, symbol Q); assay type: in vivo, false cleavers (Galium spurium)
In short: (§1)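 Seeds were sown in sterilized diluvial soil and covered with about 1.5 cm of soil. An emulsion formulation diluted with water to a predetermined herbicide amount was sprayed evenly onto the soil surface. Plants grew in a greenhouse at 25° C. to 30° C., and the effect was scored three weeks after application using criteria from an earlier test.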

barnyard grass [2] = test: Test Example 5: herbicidal effect by foliage application, plastic box (Table 20, symbol H); assay type: in vivo, barnyard grass (Echinochloa crus-galli); details: foliage application, 320 g/ha
In short: (§2)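 Plants sown in sterilized diluvial soil and grown 14 days in a greenhouse at 25° C to 30° C, then sprayed on the foliage with the compound's emulsion diluted in water to a predetermined herbicide amount. Injury to weeds and crops scored three weeks after application on a visual rating scale.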

blackgrass [3] = test: Test Example 4: herbicidal effect by soil treatment (Table 19, symbol J); assay type: in vivo, blackgrass (Alopecurus myosuroides)
In short: as §1

wild oat [4] = test: Test Example 4: herbicidal effect by soil treatment (Table 19, symbol I); assay type: in vivo, wild oat (Avena fatua)
In short: as §1

Japanese bulrush = test: Test Example 1: herbicidal activity, application before weed generation under submerged conditions (Table 16, symbol B); assay type: in vivo, Japanese bulrush (Schoenoplectus juncoides); details: 320 g/ha applied herbicide
In short: (§3)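 Alluvial soil was flooded to 4 cm depth, weed seeds were sown mixed and 2.5-leaf rice seedlings were transplanted. On sowing day, the compound's emulsion, diluted in water to a set dose, was applied to the water surface. Plants grew at 25–30 °C and were scored 0–5 after three weeks.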

oval-leafed pondweed = test: Test Example 1: herbicidal activity, application before weed generation under submerged conditions (Table 16, symbol C); assay type: in vivo, oval-leafed pondweed (Monochoria vaginalis); details: 320 g/ha applied herbicide
In short: as §3

barnyard grass [5] = test: Test Example 4: herbicidal effect by soil treatment (Table 19, symbol H); assay type: in vivo, barnyard grass (Echinochloa crus-galli)
In short: as §1

green foxtail [6] = test: Test Example 4: herbicidal effect by soil treatment (Table 19, symbol G); assay type: in vivo, green foxtail (Setaria viridis)
In short: as §1

Italian ryegrass [7] = test: Test Example 4: herbicidal effect by soil treatment (Table 19, symbol K); assay type: in vivo, Italian ryegrass (Lolium multiflorum)
In short: as §1

lambsquarters [8] = test: Test Example 5: herbicidal effect by foliage application, plastic box (Table 20, symbol O); assay type: in vivo, lambsquarters (Chenopodium album); details: foliage application, 320 g/ha
In short: as §2

chickweed [9] = test: Test Example 4: herbicidal effect by soil treatment (Table 19, symbol P); assay type: in vivo, common chickweed (Stellaria media)
In short: as §1

velvetleaf [10] = test: Test Example 4: herbicidal effect by soil treatment (Table 19, symbol M); assay type: in vivo, velvetleaf (Abutilon theophrasti)
In short: as §1

Italian ryegrass [11] = test: Test Example 5: herbicidal effect by foliage application, plastic box (Table 20, symbol K); assay type: in vivo, Italian ryegrass (Lolium multiflorum); details: foliage application, 320 g/ha
In short: as §2

redroot pigweed [12] = test: Test Example 4: herbicidal effect by soil treatment (Table 19, symbol N); assay type: in vivo, redroot pigweed (Amaranthus retroflexus)
In short: as §1

lambsquarters [13] = test: Test Example 4: herbicidal effect by soil treatment (Table 19, symbol O); assay type: in vivo, lambsquarters (Chenopodium album)
In short: as §1

persian speedwell [14] = test: Test Example 5: herbicidal effect by foliage application, plastic box (Table 20, symbol R); assay type: in vivo, Persian speedwell (Veronica persica); details: foliage application, 320 g/ha
In short: as §2

late watergrass = test: Test Example 1: herbicidal activity, application before weed generation under submerged conditions (Table 16, symbol A); assay type: in vivo, late watergrass (Echinochloa oryzicola); details: 320 g/ha applied herbicide
In short: as §3

southern crabgrass [15] = test: Test Example 5: herbicidal effect by foliage application, plastic box (Table 20, symbol F); assay type: in vivo, southern crabgrass (Digitaria ciliaris); details: foliage application, 320 g/ha
In short: as §2

blackgrass [16] = test: Test Example 5: herbicidal effect by foliage application, plastic box (Table 20, symbol J); assay type: in vivo, blackgrass (Alopecurus myosuroides); details: foliage application, 320 g/ha
In short: as §2

barnyard grass [17] = test: Test Example 3: herbicidal effect by foliage application, Wagner pot (Table 18, symbol H); assay type: in vivo, barnyard grass (Echinochloa crus-galli)
In short: (§4)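 Plants were sown in alluvial soil held under 0.1–0.5 cm standing water and grown 14 days in a greenhouse at 25–30 °C. An emulsifiable formulation, water-diluted to the set dose, was then sprayed onto the foliage, and effects were scored three weeks later using previously defined criteria.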

green foxtail [18] = test: Test Example 5: herbicidal effect by foliage application, plastic box (Table 20, symbol G); assay type: in vivo, green foxtail (Setaria viridis); details: foliage application, 320 g/ha
In short: as §2

persian speedwell [19] = test: Test Example 4: herbicidal effect by soil treatment (Table 19, symbol R); assay type: in vivo, Persian speedwell (Veronica persica)
In short: as §1

velvetleaf [20] = test: Test Example 5: herbicidal effect by foliage application, plastic box (Table 20, symbol M); assay type: in vivo, velvetleaf (Abutilon theophrasti); details: foliage application, 320 g/ha
In short: as §2

wild oat [21] = test: Test Example 5: herbicidal effect by foliage application, plastic box (Table 20, symbol I); assay type: in vivo, wild oat (Avena fatua); details: foliage application, 320 g/ha
In short: as §2

southern crabgrass [22] = test: Test Example 4: herbicidal effect by soil treatment (Table 19, symbol F); assay type: in vivo, southern crabgrass (Digitaria ciliaris)
In short: as §1

windgrass [23] = test: Test Example 5: herbicidal effect by foliage application, plastic box (Table 20, symbol L); assay type: in vivo, windgrass (Apera spica-venti); details: foliage application, 320 g/ha
In short: as §2

rice flat sedge = test: Test Example 3: herbicidal effect by foliage application, Wagner pot (Table 18, symbol E); assay type: in vivo, rice flat sedge (Cyperus iria)
In short: as §4

Chinese sprangletop = test: Test Example 3: herbicidal effect by foliage application, Wagner pot (Table 18, symbol D); assay type: in vivo, chinese sprangletop (Leptochloa chinensis)
In short: as §4

windgrass [24] = test: Test Example 4: herbicidal effect by soil treatment (Table 19, symbol L); assay type: in vivo, windgrass (Apera spica-venti)
In short: as §1

false cleavers [25] = test: Test Example 5: herbicidal effect by foliage application, plastic box (Table 20, symbol Q); assay type: in vivo, false cleavers (Galium spurium); details: foliage application, 320 g/ha
In short: as §2

chickweed [26] = test: Test Example 5: herbicidal effect by foliage application, plastic box (Table 20, symbol P); assay type: in vivo, common chickweed (Stellaria media); details: foliage application, 320 g/ha, evaluated three weeks after application
In short: as §2

redroot pigweed [27] = test: Test Example 5: herbicidal effect by foliage application, plastic box (Table 20, symbol N); assay type: in vivo, redroot pigweed (Amaranthus retroflexus); details: foliage application, 320 g/ha, evaluated three weeks after application
In short: as §2

[28] = amount of applied herbicide 320 g/ha
[29] = evaluated three weeks after application

COc1nn(C)c(=O)c(-c2c(-c3ccc4c(c3)OCCO4)sc3ccccc23)c1O [1-198]
Q: false cleavers, herbicidal effect rating (false cleavers [1]; AAH 320 g/ha): 1 (Herbicidal rate of 5% or more and less than 20%) | effect on barnyard grass (H) (barnyard grass [2]; 3 weeks after application): 2 (Herbicidal rate of 20% or more and less than 40%) | J: blackgrass, herbicidal effect rating (blackgrass [3]; AAH 320 g/ha): 0 (Herbicidal rate of 5% or less (almost no effect)) | I: wild oat, herbicidal effect rating (wild oat [4]; AAH 320 g/ha): 0 (Herbicidal rate of 5% or less (almost no effect)) | Herbicidal effect on B: Japanese bulrush (grade 0-5) (Japanese bulrush): 0 (Herbicidal rate of 5% or less (almost no effect)) | Herbicidal effect on C: oval-leafed pondweed (grade 0-5) (oval-leafed pondweed): 0 (Herbicidal rate of 5% or less (almost no effect)) | H: barnyard grass, herbicidal effect rating (barnyard grass [5]; AAH 320 g/ha): 2 (Herbicidal rate of 20% or more and less than 40%) | G: green foxtail, herbicidal effect rating (green foxtail [6]; AAH 320 g/ha): 5 (Herbicidal rate of 90% or more (almost completely withered)) | K: Italian ryegrass, herbicidal effect rating (Italian ryegrass [7]; AAH 320 g/ha): 0 (Herbicidal rate of 5% or less (almost no effect)) | effect on lambsquarters (O) (lambsquarters [8]; 3 weeks after application): 2 (Herbicidal rate of 20% or more and less than 40%) | P: chickweed, herbicidal effect rating (chickweed [9]; AAH 320 g/ha): 5 (Herbicidal rate of 90% or more (almost completely withered)) | M: velvetleaf, herbicidal effect rating (velvetleaf [10]; AAH 320 g/ha): 5 (Herbicidal rate of 90% or more (almost completely withered)) | effect on Italian ryegrass (K) (Italian ryegrass [11]; 3 weeks after application): 4 (Herbicidal rate of 70% or more and less than 90%) | N: redroot pigweed, herbicidal effect rating (redroot pigweed [12]; AAH 320 g/ha): 0 (Herbicidal rate of 5% or less (almost no effect)) | O: lambsquarters, herbicidal effect rating (lambsquarters [13]; AAH 320 g/ha): 0 (Herbicidal rate of 5% or less (almost no effect)) | effect on persian speedwell (R) (persian speedwell [14]; 3 weeks after application): 5 (Herbicidal rate of 90% or more (almost completely withered)) | Herbicidal effect on A: late watergrass (grade 0-5) (late watergrass): 3 (Herbicidal rate of 40% or more and less than 70%) | effect on southern crabgrass (F) (southern crabgrass [15]; 3 weeks after application): 4 (Herbicidal rate of 70% or more and less than 90%) | effect on blackgrass (J) (blackgrass [16]; 3 weeks after application): 0 (Herbicidal rate of 5% or less (almost no effect)) | herbicidal effect on H (barnyard grass), rating 0-5 (barnyard grass [17]; 320 g/ha): 5 (Herbicidal rate of 90% or more (almost completely withered)) | effect on green foxtail (G) (green foxtail [18]; 3 weeks after application): 4 (Herbicidal rate of 70% or more and less than 90%) | R: persian speedwell, herbicidal effect rating (persian speedwell [19]; AAH 320 g/ha): 5 (Herbicidal rate of 90% or more (almost completely withered)) | effect on velvetleaf (M) (velvetleaf [20]; 3 weeks after application): 4 (Herbicidal rate of 70% or more and less than 90%) | effect on wild oat (I) (wild oat [21]; 3 weeks after application): 0 (Herbicidal rate of 5% or less (almost no effect)) | F: southern crabgrass, herbicidal effect rating (southern crabgrass [22]; AAH 320 g/ha): 0 (Herbicidal rate of 5% or less (almost no effect)) | effect on windgrass (L) (windgrass [23]; 3 weeks after application): 0 (Herbicidal rate of 5% or less (almost no effect)) | herbicidal effect on E (rice flat sedge), rating 0-5 (rice flat sedge; 320 g/ha): 5 (Herbicidal rate of 90% or more (almost completely withered)) | herbicidal effect on D (Chinese sprangletop), rating 0-5 (Chinese sprangletop; 320 g/ha): 3 (Herbicidal rate of 40% or more and less than 70%) | L: windgrass, herbicidal effect rating (windgrass [24]; AAH 320 g/ha): 0 (Herbicidal rate of 5% or less (almost no effect)) | effect on false cleavers (Q) (false cleavers [25]; 3 weeks after application): 1 (Herbicidal rate of 5% or more and less than 20%)

CCOc1cc(F)ccc1-c1sc2ccc(Cl)cc2c1-c1c(O)c(C)nn(C)c1=O [2-115]
Q: false cleavers, herbicidal effect rating (false cleavers [1]; [28]): 4 (Herbicidal rate of 70% or more and less than 90%) | herbicidal effect on H: barnyard grass (barnyard grass [2]; [29]): 5 (Herbicidal rate of 90% or more (almost completely withered)) | J: blackgrass, herbicidal effect rating (blackgrass [3]; [28]): 4 (Herbicidal rate of 70% or more and less than 90%) | herbicidal effect on P: chickweed (chickweed [26]): 5 (Herbicidal rate of 90% or more (almost completely withered)) | I: wild oat, herbicidal effect rating (wild oat [4]; [28]): 0 (Herbicidal rate of 5% or less (almost no effect)) | H: barnyard grass, herbicidal effect rating (barnyard grass [5]; [28]): 3 (Herbicidal rate of 40% or more and less than 70%) | G: green foxtail, herbicidal effect rating (green foxtail [6]; [28]): 2 (Herbicidal rate of 20% or more and less than 40%) | K: Italian ryegrass, herbicidal effect rating (Italian ryegrass [7]; [28]): 0 (Herbicidal rate of 5% or less (almost no effect)) | herbicidal effect on O: lambsquarters (lambsquarters [8]; [29]): 3 (Herbicidal rate of 40% or more and less than 70%) | P: chickweed, herbicidal effect rating (chickweed [9]; [28]): 3 (Herbicidal rate of 40% or more and less than 70%) | M: velvetleaf, herbicidal effect rating (velvetleaf [10]; [28]): 1 (Herbicidal rate of 5% or more and less than 20%) | herbicidal effect on K: Italian ryegrass (Italian ryegrass [11]; [29]): 0 (Herbicidal rate of 5% or less (almost no effect)) | N: redroot pigweed, herbicidal effect rating (redroot pigweed [12]; [28]): 5 (Herbicidal rate of 90% or more (almost completely withered)) | O: lambsquarters, herbicidal effect rating (lambsquarters [13]; [28]): 3 (Herbicidal rate of 40% or more and less than 70%) | herbicidal effect on R: persian speedwell (persian speedwell [14]; [29]): 5 (Herbicidal rate of 90% or more (almost completely withered)) | herbicidal effect on F: southern crabgrass (southern crabgrass [15]; [29]): 4 (Herbicidal rate of 70% or more and less than 90%) | herbicidal effect on J: blackgrass (blackgrass [16]; [29]): 3 (Herbicidal rate of 40% or more and less than 70%) | herbicidal effect on H: barnyard grass (barnyard grass [17]; [28]): 5 (Herbicidal rate of 90% or more (almost completely withered)) | herbicidal effect on G: green foxtail (green foxtail [18]; [29]): 3 (Herbicidal rate of 40% or more and less than 70%) | herbicidal effect on N: redroot pigweed (redroot pigweed [27]): 5 (Herbicidal rate of 90% or more (almost completely withered)) | R: persian speedwell, herbicidal effect rating (persian speedwell [19]; [28]): 4 (Herbicidal rate of 70% or more and less than 90%) | herbicidal effect on M: velvetleaf (velvetleaf [20]; [29]): 5 (Herbicidal rate of 90% or more (almost completely withered)) | herbicidal effect on I: wild oat (wild oat [21]; [29]): 1 (Herbicidal rate of 5% or more and less than 20%) | F: southern crabgrass, herbicidal effect rating (southern crabgrass [22]; [28]): 3 (Herbicidal rate of 40% or more and less than 70%) | herbicidal effect on L: windgrass (windgrass [23]; [29]): 3 (Herbicidal rate of 40% or more and less than 70%) | herbicidal effect on E: rice flat sedge (rice flat sedge; [28]): 3 (Herbicidal rate of 40% or more and less than 70%) | herbicidal effect on D: Chinese sprangletop (Chinese sprangletop; [28]): 1 (Herbicidal rate of 5% or more and less than 20%) | L: windgrass, herbicidal effect rating (windgrass [24]; [28]): 0 (Herbicidal rate of 5% or less (almost no effect)) | herbicidal effect on Q: false cleavers (false cleavers [25]; [29]): 5 (Herbicidal rate of 90% or more (almost completely withered))
